ChEMBL document CHEMBL4414613, “Antibacterial 5α-Spirostane Saponins from the Fruit of Cordyline manners-suttoniae” (J Nat Prod, 2019)
In brackets after ≈: the same amount, converted by molar mass. Activity calls are given as the source filed them. The calls are words filed in the database; no cut-off is given here.

Tests used:
[1] = tested on: Enterococcus faecium; assay: Antibacterial activity against Enterococcus faecium ATCC 35667 at 90 uM incubated for 24 hrs by microdilution assay; type: functional, organism-based
[2] = tested on: Klebsiella aerogenes; assay: Bactericidal activity against Enterobacter aerogenes ATCC 13048 at 90 uM incubated for 24 hrs by microdilution assay; type: functional
[3] = tested on: Enterobacter cloacae subsp. cloacae; assay: Bactericidal activity against Enterobacter cloacae ATCC 13047 at 90 uM incubated for 24 hrs by microdilution assay; type: functional
[4] = tested on: Klebsiella pneumoniae; assay: Bactericidal activity against Klebsiella pneumoniae ATCC 12657 at 90 uM incubated for 24 hrs by microdilution assay; type: functional, organism-based
[5] = tested on: Acinetobacter baumannii; assay: Bactericidal activity against Acinetobacter baumannii ATCC 17978 at 90 uM incubated for 24 hrs by microdilution assay; type: functional, organism-based
[6] = tested on: HaCaT; assay: Cytotoxicity against human HaCaT cells assessed as reduction in cell viability incubated for 4 days by CellTiter 96 aqueous one solution assay; type: cell-based; conditions: 96 h
[7] = tested on: Enterococcus faecium; assay: Bactericidal activity against Enterococcus faecium ATCC 35667 at 90 uM incubated for 24 hrs by microdilution assay; type: functional, organism-based
[8] = Selectivity ratio of IC50 for human HaCaT cells to IC50 for human HDF cells by CellTiter 96 aqueous one solution assay
[9] = tested on: Acinetobacter baumannii; assay: Bactericidal activity against Acinetobacter baumannii ATCC 19606 at 90 uM incubated for 24 hrs by microdilution assay; type: functional, organism-based; conditions: ATCC 19606 = CIP 70.34 = JCM 6841
[10] = tested on: Enterococcus faecium; assay: Bactericidal activity against Enterococcus faecium C15 at 90 uM incubated for 24 hrs by microdilution assay; type: functional, organism-based
[11] = tested on: Pseudomonas aeruginosa; assay: Antibacterial activity against Pseudomonas aeruginosa ATCC 10145 at 90 uM incubated for 24 hrs by microdilution assay; type: functional, organism-based
[12] = tested on: Enterobacter cloacae subsp. cloacae; assay: Antibacterial activity against Enterobacter cloacae ATCC 13047 at 90 uM incubated for 24 hrs by microdilution assay; type: functional
[13] = tested on: Staphylococcus aureus; assay: Antibacterial activity against Staphylococcus aureus ATCC 29247 at 90 uM incubated for 24 hrs by microdilution assay; type: functional, organism-based
[14] = tested on: Pseudomonas aeruginosa; assay: Antibacterial activity against Pseudomonas aeruginosa ATCC 49189 at 90 uM incubated for 24 hrs by microdilution assay; type: functional, organism-based
[15] = tested on: NHDF; assay: Cytotoxicity against human HDF cells assessed as reduction in cell viability incubated for 7 days by CellTiter 96 aqueous one solution assay; type: functional, cell-based; conditions: 168 h
[16] = tested on: Klebsiella aerogenes; assay: Antibacterial activity against Enterobacter aerogenes ATCC 13048 at 90 uM incubated for 24 hrs by microdilution assay; type: functional
[17] = tested on: Klebsiella pneumoniae; assay: Bactericidal activity against Klebsiella pneumoniae ATCC 13883 at 90 uM incubated for 24 hrs by microdilution assay; type: functional, organism-based
[18] = tested on: Staphylococcus aureus; assay: Bactericidal activity against Staphylococcus aureus ATCC 25923 at 90 uM incubated for 24 hrs by microdilution assay; type: functional, organism-based
[19] = tested on: Klebsiella pneumoniae; assay: Antibacterial activity against Klebsiella pneumoniae ATCC 12657 at 90 uM incubated for 24 hrs by microdilution assay; type: functional, organism-based
[20] = tested on: Pseudomonas aeruginosa; assay: Bactericidal activity against Pseudomonas aeruginosa ATCC 10145 at 90 uM incubated for 24 hrs by microdilution assay; type: functional, organism-based
[21] = tested on: Acinetobacter baumannii; assay: Antibacterial activity against Acinetobacter baumannii ATCC 19606 at 90 uM incubated for 24 hrs by microdilution assay; type: functional, organism-based; conditions: ATCC 19606 = CIP 70.34 = JCM 6841
[22] = tested on: Staphylococcus aureus; assay: Bactericidal activity against Staphylococcus aureus ATCC 29247 at 90 uM incubated for 24 hrs by microdilution assay; type: functional, organism-based
[23] = tested on: Pseudomonas aeruginosa; assay: Bactericidal activity against Pseudomonas aeruginosa ATCC 49189 at 90 uM incubated for 24 hrs by microdilution assay; type: functional, organism-based
[24] = tested on: Staphylococcus aureus; assay: Antibacterial activity against Staphylococcus aureus ATCC 25923 at 90 uM incubated for 24 hrs by microdilution assay; type: functional, organism-based
[25] = tested on: Enterococcus faecium; assay: Antibacterial activity against Enterococcus faecium C15 incubated for 24 hrs by microdilution assay; type: functional
[26] = tested on: Klebsiella pneumoniae; assay: Antibacterial activity against Klebsiella pneumoniae ATCC 13883 at 90 uM incubated for 24 hrs by microdilution assay; type: functional, organism-based
[27] = tested on: Acinetobacter baumannii; assay: Antibacterial activity against Acinetobacter baumannii ATCC 17978 at 90 uM incubated for 24 hrs by microdilution assay; type: functional, organism-based
[28] = tested on: Staphylococcus aureus; assay: Antibacterial activity against Staphylococcus aureus ATCC 29247 incubated for 24 hrs by microdilution assay; type: functional
[29] = tested on: Enterococcus faecium; assay: Antibacterial activity against Enterococcus faecium ATCC 35667 incubated for 24 hrs by microdilution assay; type: functional
[30] = tested on: Staphylococcus aureus; assay: Antibacterial activity against Staphylococcus aureus ATCC 25923 incubated for 24 hrs by microdilution assay; type: functional
[31] = tested on: Enterococcus faecium; assay: Bactericidal activity against Enterococcus faecium C15 incubated for 24 hrs by microdilution assay; type: functional; conditions: C15, 24 h
[32] = tested on: Enterococcus faecium; assay: Bactericidal activity against Enterococcus faecium ATCC 35667 incubated for 24 hrs by microdilution assay; type: functional; conditions: ATCC 35667, 24 h

MIC75 [25] [µM] | Compound | Activity [2] | Activity [3] | Activity [4] | Activity [5] | IC50 [6] [µM] | Activity [7] | Ratio IC50 [8] | Activity [9] | Activity [10] | Activity [11] | Activity [12] | Activity [14] | IC50 [15] [µM] | Activity [16] | Activity [17] | Activity [18] | Activity [19] | Activity [20] | Activity [22] | further results
84.3 (≈ 50 µg/mL) | C=C1CC[C@]2(OC1)O[C@H]1C[C@H]3[C@@H]4CC[C@H]5[C@H](O)[C@@H](O)C[C@@H](O[C@@H]6O[C@H](C)[C@H](O)[C@H](O)[C@H]6O)[C@]5(C)[C@H]4CC[C@]3(C)[C@H]1[C@@H]2C | inactive | inactive | inactive | inactive | 42.1 | inactive | 3 - 11 | inactive | inactive | inactive | inactive | inactive | 8.9 | inactive | inactive | inactive | inactive | inactive | inactive | Activity [1]: inactive; Activity [13]: inactive; Activity [21]: inactive; Activity [23]: inactive; Activity [24]: inactive; Activity [26]: inactive; Activity [27]: inactive
9.7 (≈ 3.13 µg/mL) | O=C(N[C@H](CO)[C@H](O)c1ccc([N+](=O)[O-])cc1)C(Cl)Cl [CHLORAMPHENICOL] |  |  |  |  |  | inactive |  |  | inactive |  |  |  |  |  |  | inactive |  |  | inactive | MIC75 [28]: 9.7 µM (≈ 3.13 µg/mL); MIC75 [29]: 9.7 µM (≈ 3.13 µg/mL); MIC75 [30]: 9.7 µM (≈ 3.13 µg/mL)
43.2 (≈ 25 µg/mL) | C[C@@H]1CC[C@]2(OC1)O[C@H]1C[C@H]3[C@@H]4CC[C@H]5C[C@H](O)C[C@@H](O[C@@H]6O[C@H](C)[C@H](O)[C@H](O)[C@H]6O)[C@]5(C)[C@H]4CC[C@]3(C)[C@H]1[C@@H]2C | inactive | inactive | inactive | inactive | 36.5 |  | 3 - 11 | inactive |  | inactive | inactive | inactive | 7.5 | inactive | inactive | inactive | inactive | inactive | inactive | MBC [31]: 86.4 µM (≈ 50 µg/mL); MIC75 [28]: 43.2 µM (≈ 25 µg/mL); MIC75 [29]: 43.2 µM (≈ 25 µg/mL); MBC [32]: 86.4 µM (≈ 50 µg/mL); Activity [21]: inactive; Activity [23]: inactive; Activity [26]: inactive; Activity [27]: inactive; MIC75 [30]: 43.2 µM (≈ 25 µg/mL)
84.1 (≈ 50 µg/mL) | C[C@@H]1CC[C@]2(OC1)O[C@H]1C[C@H]3[C@@H]4CC[C@H]5[C@H](O)[C@@H](O)C[C@@H](O[C@@H]6O[C@H](C)[C@H](O)[C@H](O)[C@H]6O)[C@]5(C)[C@H]4CC[C@]3(C)[C@H]1[C@@H]2C | inactive | inactive | inactive | inactive | 36.3 | inactive | 3 - 11 | inactive | inactive | inactive | inactive | inactive | 8.6 | inactive | inactive | inactive | inactive | inactive | inactive | Activity [13]: inactive; MIC75 [29]: 84.1 µM (≈ 50 µg/mL); Activity [21]: inactive; Activity [23]: inactive; Activity [24]: inactive; Activity [26]: inactive; Activity [27]: inactive
